In US10357468B2, “Medicaments for slowing Parkinson's disease” (BIAL—PORTELA & CA, S.A., priority 2014, dated 2019):

Experiments:
PD patients = experiment: 1-year open label extension of placebo-controlled double-blind trials of opicapone with levodopa and AADC inhibitor (Examples 1A, 1B); type: in vivo, human
[1] = Tolerability in the Example 2 study; details: OPC 25, 50 and 75 mg QD for 11 days

Which “difference in OFF time” value (PD patients; PD patients, at least 12 months post commencement of treatment with opicapone (with levodopa and AADCi), FIG. 1) does the source give for `Cc1c(Cl)c(C)[n+]([O-])c(Cl)c1-c1noc(-c2cc(O)c(O)c([N+](=O)[O-])c2)n1` [opicapone, 5-[3-(2,5-dichloro-4,6-dimethyl-1-oxy-pyridin-3-yl)-[1,2,4]oxadiazol-5-yl]-3-nitrobenzene-1,2-diol] here?
The value was “approximately −2.0 hrs”.

And the “difference in ON time without troublesome dyskinesia” value (PD patients; PD patients, at least 12 months post commencement of treatment with opicapone (with levodopa and AADCi), FIG. 2)?
Its value is “approximately +1.5 hr”.

What about the “progression of PD” value (PD patients; patients treated with opicapone from an earlier stage compared with groups naïve to opicapone, once a day at bedtime) of the same compound?
The value was “progressed less”.

And the tolerability profile [1]?
The tolerability profile was “favourable”.
